Experimental findings from the NIST ThermoML archive (doi:10.1016/j.fluid.2008.04.014) are described below.

Numbers after ± are expanded uncertainties.

Data set [1] in a line: refractive index (Na D-line) (dimensionless). To be noted: 293.15 K; 101.33 kPa; Liquid; Standard Abbe refractometry.
The conditions of data set [2]: Liquid; for mass density: 293.15 K, 101.33 kPa, Vibrating tube method; for Normal boiling temperature: Manometric method.

For the compound `COC(=O)/C=C\C(=O)OC` [dimethyl cis-butenedioate], in data set [1], the refractive index was 1.4415 ± 0.0011. Also, in data set [2], the mass density turned out to be 1160.8 ± 0.4 kg/m3 and the Normal boiling temperature came to 202.00 ± 1 °C.
On to `CCC(=O)O` [propanoic acid], for which the refractive index in data set [1] was determined as 1.391 ± 0.0011. Also, in data set [2], the mass density turned out to be 988.3 ± 0.3 kg/m3 and the Normal boiling temperature stood at 141.20 ± 0.4 °C.
On to `O` [water], for which the refractive index in data set [1] came to 1.3334 ± 0.001.
`O=CO` [formic acid]: the refractive index in data set [1] stood at 1.3709 ± 0.0011. In data set [2], the mass density is given as 1221.1 ± 0.4 kg/m3 and the Normal boiling temperature came out at 101.00 ± 1 °C.
The like results for `CC(=O)O` [acetic acid] were, in that order, 1.3719 ± 0.0011, 1044.7 ± 0.3 kg/m3 and 117.90 ± 0.4 °C.

Broadly, the refractive index is the speed of light in vacuum divided by its phase velocity in the sample. As usually defined, the mass density is the mass of a sample divided by its volume.
